Earlier results in patent US11497760B2, “Method for solubilizing poorly water-soluble dietary supplements and pharmaceutically active agents” (ATHENION AG, priority 2016, dated 2022).

Columns and labels:
P-glycoprotein = P-glycoprotein (Homo sapiens, UniProt P08183)
human CYP3A4 = human CYP3A4 (Homo sapiens, UniProt P08684)
Chain of human CYP3A4 (P08684 whole entry): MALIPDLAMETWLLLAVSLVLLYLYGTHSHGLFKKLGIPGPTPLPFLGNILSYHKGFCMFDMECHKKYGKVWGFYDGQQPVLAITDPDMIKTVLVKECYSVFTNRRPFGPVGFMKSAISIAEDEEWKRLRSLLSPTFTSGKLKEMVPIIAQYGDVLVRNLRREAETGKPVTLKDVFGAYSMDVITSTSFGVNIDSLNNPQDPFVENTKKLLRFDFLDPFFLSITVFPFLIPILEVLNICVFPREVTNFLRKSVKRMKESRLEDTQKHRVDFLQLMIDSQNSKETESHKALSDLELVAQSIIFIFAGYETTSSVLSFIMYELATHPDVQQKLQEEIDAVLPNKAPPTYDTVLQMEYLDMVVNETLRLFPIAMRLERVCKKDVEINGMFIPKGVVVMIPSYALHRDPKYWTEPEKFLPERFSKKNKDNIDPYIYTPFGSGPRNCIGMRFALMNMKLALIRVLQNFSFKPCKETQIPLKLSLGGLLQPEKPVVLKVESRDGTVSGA

Chain of P-glycoprotein (P08183 whole entry): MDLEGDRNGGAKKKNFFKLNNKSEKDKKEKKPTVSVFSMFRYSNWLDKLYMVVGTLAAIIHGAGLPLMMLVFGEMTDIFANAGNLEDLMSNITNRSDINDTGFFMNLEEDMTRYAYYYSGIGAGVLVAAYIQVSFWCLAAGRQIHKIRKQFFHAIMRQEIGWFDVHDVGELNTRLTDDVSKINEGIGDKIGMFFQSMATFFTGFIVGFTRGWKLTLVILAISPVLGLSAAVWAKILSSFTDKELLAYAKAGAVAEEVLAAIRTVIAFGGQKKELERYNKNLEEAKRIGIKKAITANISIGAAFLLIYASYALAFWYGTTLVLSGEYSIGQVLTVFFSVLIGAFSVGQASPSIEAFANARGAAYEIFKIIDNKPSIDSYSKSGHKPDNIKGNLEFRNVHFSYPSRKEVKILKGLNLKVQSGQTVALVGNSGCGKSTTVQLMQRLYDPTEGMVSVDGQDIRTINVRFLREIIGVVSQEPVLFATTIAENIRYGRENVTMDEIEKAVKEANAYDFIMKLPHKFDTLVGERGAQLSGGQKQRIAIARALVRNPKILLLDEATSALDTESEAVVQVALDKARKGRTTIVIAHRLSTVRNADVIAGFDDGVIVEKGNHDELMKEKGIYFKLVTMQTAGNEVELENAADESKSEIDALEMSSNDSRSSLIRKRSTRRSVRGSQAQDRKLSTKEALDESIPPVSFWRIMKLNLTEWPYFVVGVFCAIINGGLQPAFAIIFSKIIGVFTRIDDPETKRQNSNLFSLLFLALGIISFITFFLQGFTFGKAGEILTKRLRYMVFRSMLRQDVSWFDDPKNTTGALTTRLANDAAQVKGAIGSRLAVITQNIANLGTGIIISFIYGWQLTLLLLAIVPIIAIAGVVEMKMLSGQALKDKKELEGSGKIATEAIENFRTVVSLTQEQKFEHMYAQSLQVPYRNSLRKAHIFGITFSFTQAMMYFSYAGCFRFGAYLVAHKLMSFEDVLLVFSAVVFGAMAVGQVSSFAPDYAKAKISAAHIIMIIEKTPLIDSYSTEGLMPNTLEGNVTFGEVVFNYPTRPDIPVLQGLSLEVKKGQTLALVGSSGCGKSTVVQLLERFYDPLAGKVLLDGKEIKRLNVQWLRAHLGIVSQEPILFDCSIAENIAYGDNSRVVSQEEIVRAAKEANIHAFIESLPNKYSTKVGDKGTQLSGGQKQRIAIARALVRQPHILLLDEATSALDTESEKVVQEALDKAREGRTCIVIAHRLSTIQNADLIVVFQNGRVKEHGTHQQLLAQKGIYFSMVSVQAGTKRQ

inhibition of P-glycoprotein (P-glycoprotein): inhibit | inhibition of human CYP3A4 (human CYP3A4): inhibit
SMILES: O=C(C=CC=Cc1ccc2c(c1)OCO2)N1CCCCC1 [Piperine, 1-[5-(1,3-benzodioxol-5-yl)-1-oxo-2,4-pentadienyl]piperidine]
